Entries after “also recorded” stand apart in the source; their conditions may differ.
Legend:
[1] = test system: renal ischemia-reperfusion injury (IRI); assay: Renal ischemia-reperfusion injury mouse model: renal function tests and histology; type: in vivo, C57BL/6 mice; details: for tissue damage due to ischemia-reperfusion (IRI-mediated damage): mouse model of renal ischemia reperfusion, overall statement
Method: (§1) C57BL/6 mice were intraperitoneally injected with 60 mg/kg of ML171, a selective NOX inhibitor or excipient at a time, renal ischemia-reperfusion injury (IRI) was induced by clamping bilateral renal vessels for 30 min. MDCK cells were incubated with H2O2 (1.4 mM) for 1 h to induce oxidative stress and treated with ML171 (1 and 2.5 μM). Renal damage was estimated using renal function tests and histology. NOX expression, oxidative stress markers, apoptosis assays and MAPK pathways were also evaluated in renal tissue and MDCK cells.

NOX = NOX mRNA expression in mouse kidney (IRI model); type: in vivo; details: C57BL/6 mice, renal IRI, 60 mg/kg intraperitoneal; FIG. 2a, 2b
Method: as §1

[2] = test system: reactive oxygen species (ROS); assay: Reactive oxygen species measurement in the kidney (IRI model); type: in vivo; details: C57BL/6 mice, renal IRI, 60 mg/kg intraperitoneal; FIG. 2d, 2e
Method: as §1

apoptosis = assay: Apoptosis assays in the kidney (Caspase-3 activity, TUNEL, BCL-2/BAX; IRI model); type: in vivo; details: C57BL/6 mice, renal IRI, 60 mg/kg intraperitoneal
Method: as §1

ERK [3] = assay: MAPK pathway western blot in kidney tissue (IRI model); type: in vivo; details: C57BL/6 mice, renal IRI, 60 mg/kg intraperitoneal, FIG. 5a, 5b
Method: as §1

MDCK cells [4] = assay: NOX-related gene and oxidative stress marker expression in H2O2-treated MDCK cells; type: cell-based; details: H2O2 1.4 mM 1 h, ML171 1 and 2.5 μM
Method: as §1

MDCK cells [5] = assay: ROS production in H2O2-treated MDCK cells; type: cell-based; details: H2O2 1.4 mM 1 h, ML171 1 and 2.5 μM, FIG. 6f
Method: as §1

MDCK cells [6] = assay: Apoptosis assays in H2O2-treated MDCK cells (Caspase-3 activity, BCL-2/BAX, TUNEL); type: cell-based; details: H2O2 1.4 mM 1 h, ML171 1 and 2.5 μM
Method: as §1

ERK [7] = assay: MAPK pathway (ERK phosphorylation) in H2O2-treated MDCK cells; type: cell-based; details: H2O2 1.4 mM 1 h, ML171 1 and 2.5 μM, FIG. 8a, 8b
Method: as §1

SMILES: CC(=O)c1ccc2c(c1)Nc1ccccc1S2 [ML171]
- level of kidney damage in the blood (renal function test) ([1]; C57BL/6 mice, renal IRI (bilateral clamping 30 min), 60 mg/kg intraperitoneal, FIG. 1a, 1b): a significant decrease
- damage to renal tubular epithelial cells, PAS staining ([1]; C57BL/6 mice, renal IRI, 60 mg/kg intraperitoneal, FIG. 1c): reduced damage to renal tubular epithelial cells
- renal fibrosis, Trichrome stain ([1]; C57BL/6 mice, renal IRI, 60 mg/kg intraperitoneal, FIG. 4a, 4b): fibrosis was significantly reduced
- tissue damage due to ischemia-reperfusion (IRI-mediated damage) [1]: significantly attenuated IRI-mediated damage
- tissue damage due to ischemia-reperfusion (IRI-mediated damage) ([1]; listed as compound of Formula 1): exhibits an effect of alleviating tissue damage due to ischemia-reperfusion
- NOX mRNA expression level in mouse kidney (NOX): significantly reduced
- reactive oxygen species (ROS) in the kidney [2]: effectively blocked ROS
- Caspase-3 activity in the kidney (apoptosis; FIG. 3a, 60 mg/kg): significant apoptosis alleviation effect; also recorded: reversed a decrease in Bcl-2 and an increase in Caspase-3 activity
- apoptosis, TUNEL assay histological staining of kidney (apoptosis; FIG. 3b): alleviated apoptosis
- protein expression levels of apoptosis markers BCL-2 and BAX in the kidneys (apoptosis; FIG. 3c, 60 mg/kg): effectively inhibited apoptosis; also recorded: reversed a decrease in Bcl-2
- phosphorylation of ERK in kidney tissue (western blot) (ERK [3]): effectively reduced it; also recorded: affect ERK signaling
- changes in oxidative stress-related enzymes, SOD and GXP production (MDCK cells [4]): alleviated by ML171 treatment
- expression of NOX-related genes / oxidative stress markers (NOX1, NOX2, p40) (MDCK cells [4]; FIG. 6a-6e): effectively decreased; also recorded: reduced the expression of NOX1, NOX2 and p40
- ROS production in cells (MDCK cells [5]): significantly reduced ROS
- Caspase-3 activity (MDCK cells [6]; FIG. 7a): a decrease in Caspase-3 activity
- protein expression levels of apoptosis markers BCL-2 and BAX (MDCK cells [6]; FIG. 7b): apoptosis was significantly inhibited; also recorded: significant increase in Bcl-2 levels
- apoptosis pattern, intracellular TUNEL assay staining (MDCK cells [6]; FIG. 7c): effectively blocked it
- ERK phosphorylation in MDCK cells (ERK [7]): significantly reduced and regulated this; also recorded: affect ERK signaling
